SMILES strings stand for the structures. ≈ marks a conversion by molar mass, not a printed value. Calls of active or inactive are those of the source. No cut-off for these calls is given here.

Holding throughout (format): functional, cell-based
Test [1] relates to MCF7. The test is described as follows: Cytotoxicity against human MCF7 cells.
Test [2] deals with Malme-3M. The test is described as follows: Cytotoxicity against human MALME-3M cells.
Test [3] has as its system SNB-19. Put plainly: Cytotoxicity against human SNB19 cells.
For test [4], the system named is A549. Put plainly: Cytotoxicity against human A549 cells.
For test [5], the system named is LOX IMVI. Put plainly: Cytotoxicity against human LOXIMVI cells.
The subject of test [6] is KM12. The test is described as follows: Cytotoxicity against human KM12 cells.
For test [7], the system named is COLO 205. Put plainly: Cytotoxicity against human COLO205 cells.
Test [8] deals with MOLT-4. Put plainly: Cytotoxicity against human MOLT4 cells.
Test [9] in a line: Cytotoxicity against human 786-O cells. The following applies: 786-0.
Test [10] relates to OVCAR-3. The test is described as follows: Cytotoxicity against human OVCAR-3 cells.
For test [11], the system named is NCI-H460. Put plainly: Cytotoxicity against human H460 cells.
The test system of test [12] is IGROV-1. Put plainly: Cytotoxicity against human IGROV1 cells.
Test [13] relates to OVCAR-3. Put plainly: Cytotoxicity against human OVCAR-3 cells at 100 ug/mL.
Test [14] relates to MCF7. The test is described as follows: Cytotoxicity against human MCF7 cells at 100 ug/mL.
Test [15] concerns KM12. The test is described as follows: Cytotoxicity against human KM12 cells at 100 ug/mL.
The subject of test [16] is NCI-H460. Put plainly: Cytotoxicity against human H460 cells at 100 ug/mL.
In another test the test system is 786-0. Put plainly: Cytotoxicity against human 786-O cells at 100 ug/mL.
Test [17] concerns LOX IMVI. The test is described as follows: Cytotoxicity against human LOXIMVI cells at 100 ug/mL.
The subject of test [18] is A549. The test is described as follows: Cytotoxicity against human A549 cells at 100 ug/mL.
The subject of test [19] is Malme-3M. The test is described as follows: Cytotoxicity against human MALME-3M cells at 100 ug/mL.
Test [20] has as its system SNB-19. The test is described as follows: Cytotoxicity against human SNB19 cells at 100 ug/mL.
The test system of test [21] is IGROV-1. Put plainly: Cytotoxicity against human IGROV1 cells at 100 ug/mL.
For test [22], the system named is MOLT-4. Put plainly: Cytotoxicity against human MOLT4 cells at 100 ug/mL.
In test [23] the test system is COLO 205. The test is described as follows: Cytotoxicity against human COLO205 cells at 100 ug/mL.
Where [24] appears, read: Homo sapiens, MCF7, read-out: IC50.

As usually defined, the IC50 is the point on the concentration scale where inhibition reaches its midpoint. In the case of `C=C1CCC[C@H]2[C@@](CC/C(C)=C/C[C@H]3OC(=O)CC3CO)(COC(C)=O)[C@@H](C)CC[C@]12C` (stereo not given in full) [THORECTANDROL B], the IC50 in the test with MCF7 [1] (setting [24]) amounted to 30 µg/mL (≈ 67.2 µM); in the test with Malme-3M [2], 30 µg/mL (≈ 67.2 µM); with SNB-19 [3], 35 µg/mL (≈ 78.4 µM); with A549 [4] it was 35 µg/mL (≈ 78.4 µM); in the test on LOX IMVI [5], 100 µg/mL (≈ 224 µM); in the test on KM12 [6] it was 94 µg/mL (≈ 210 µM). The IC50 in the test on COLO 205 [7] is 23.6 µg/mL (≈ 52.8 µM); in the test on MOLT-4 [8], 19 µg/mL (≈ 42.5 µM); in [9] it was 35 µg/mL (≈ 78.4 µM); in the test with OVCAR-3 [10], 70 µg/mL (≈ 157 µM); with NCI-H460 [11], 96 µg/mL (≈ 215 µM); in the test on IGROV-1 [12], greater than 100 µg/mL.

For the molecule `C=C1CCC[C@H]2[C@](C)(CC/C(C)=C/C[C@H]3OC(=O)C=C3CO)[C@@H](C)CC[C@]12C` [THORECTANDROL A], the IC50 in the test on MCF7 [1] (setting [24]) is 40 µg/mL (≈ 103 µM); in the test with Malme-3M [2], 40 µg/mL (≈ 103 µM); in the test with SNB-19 [3], 40 µg/mL (≈ 103 µM); with A549 [4] it was 35 µg/mL (≈ 90.5 µM); in the test on LOX IMVI [5], 35 µg/mL (≈ 90.5 µM); in the test on KM12 [6], 40 µg/mL (≈ 103 µM). In addition, the IC50 in the test with COLO 205 [7] is 37 µg/mL (≈ 95.7 µM); with MOLT-4 [8] it was 32 µg/mL (≈ 82.8 µM); in test [9] it was 30 µg/mL (≈ 77.6 µM); with OVCAR-3 [10], 35 µg/mL (≈ 90.5 µM); in the test on NCI-H460 [11], 35 µg/mL (≈ 90.5 µM); in the test on IGROV-1 [12], 31 µg/mL (≈ 80.2 µM).

`CC(C)=CC1C/C(=C/CC/C(C)=C/CC/C(C)=C/C[C@@H](O)C2=CC(=O)OC2)C(=O)O1` (stereo not given in full): the outcome with OVCAR-3 [13], with MCF7 [14], in the test on KM12 [15], in the test on NCI-H460 [16], with 786-0 and in the test with LOX IMVI [17] was inactive. Further, the outcome in the test with A549 [18], in the test with Malme-3M [19], in the test with SNB-19 [20], in the test on IGROV-1 [21], with MOLT-4 [22] and with COLO 205 [23] was inactive.

For the molecule `CC(C)=CC1C/C(=C\CC/C(C)=C/CC/C(C)=C/CCC2=CC(=O)OC2)C(=O)O1` (stereo not given), the result with OVCAR-3 [13], with MCF7 [14], in the test on KM12 [15], in the test with NCI-H460 [16], with 786-0 and in the test on LOX IMVI [17] was inactive. Moreover, the result in the test on A549 [18], with Malme-3M [19], with SNB-19 [20], in the test on IGROV-1 [21], in the test on MOLT-4 [22] and with COLO 205 [23] was inactive.

For the molecule `C=C1CCC[C@H]2[C@](C)(CC/C(C)=C/C[C@@H](O)C3=CC(=O)OC3)[C@@H](C)[C@H](OC(C)=O)C[C@]12C` [THORECTANDROL C], the IC50 result in the test with MCF7 [1] (mcf7) is “Not Active”; in the test with Malme-3M [2], 30 µg/mL (≈ 67.5 µM); in the test with A549 [4], 30 µg/mL (≈ 67.5 µM); in test [9], 30 µg/mL (≈ 67.5 µM). Also, the result in the test with LOX IMVI [5] and in the test on OVCAR-3 [10] was inactive.

Turning to `C=C1CCC[C@@H]2[C@@](C)(CC/C(C)=C/C[C@@H](O)C3=CC(=O)OC3O)[C@@H](C)CC[C@@]12C` (stereo not given in full) [PALAUOLOL], the IC50 with MCF7 [1] (setting [24]) was 7 µg/mL (≈ 17.4 µM); in the test with Malme-3M [2], 0.5 µg/mL (≈ 1.24 µM); in the test on SNB-19 [3], 2.1 µg/mL (≈ 5.22 µM); in the test with A549 [4], greater than 100 µg/mL; with LOX IMVI [5] it was 2.4 µg/mL (≈ 5.96 µM); in the test on KM12 [6] it was 1.8 µg/mL (≈ 4.47 µM). Also, the IC50 in the test with COLO 205 [7] amounted to 1.1 µg/mL (≈ 2.73 µM); in the test with MOLT-4 [8], 0.6 µg/mL (≈ 1.49 µM); in test [9] it was 1.4 µg/mL (≈ 3.48 µM); with OVCAR-3 [10], 2.2 µg/mL (≈ 5.46 µM); in the test on NCI-H460 [11] it was 1.3 µg/mL (≈ 3.23 µM); in the test on IGROV-1 [12], 1.5 µg/mL (≈ 3.73 µM).

As to `C=C1CCC[C@H]2[C@](C)(CC/C(C)=C/C=C/C3=CC(=O)OC3O)[C@@H](C)CC[C@]12C` (stereo not given in full) [PALAUOLIDE], the IC50 in the test on MCF7 [1] (setting [24]) is greater than 100 µg/mL; in the test on Malme-3M [2], 37 µg/mL (≈ 96.2 µM); with SNB-19 [3], 52.1 µg/mL (≈ 135 µM); with A549 [4], 30 µg/mL (≈ 78 µM); in the test with LOX IMVI [5], 51.2 µg/mL (≈ 133 µM); in the test with KM12 [6], 14.4 µg/mL (≈ 37.4 µM). For the same molecule, the IC50 in the test on COLO 205 [7] came out at 23.6 µg/mL (≈ 61.4 µM); in the test with MOLT-4 [8], 43.5 µg/mL (≈ 113 µM); in [9], 53 µg/mL (≈ 138 µM); with OVCAR-3 [10], 30 µg/mL (≈ 78 µM); with NCI-H460 [11], 10.1 µg/mL (≈ 26.3 µM); with IGROV-1 [12] it was 7.7 µg/mL (≈ 20 µM).

Take `C=C1CCC[C@H]2[C@](C)(CC/C(C)=C/C[C@@H](O)C3=CC(=O)OC3)[C@@H](C)[C@H](O)C[C@]12C`: the outcome in the test on OVCAR-3 [13], with MCF7 [14], with KM12 [15], in the test with NCI-H460 [16], in the test on 786-0 and in the test with LOX IMVI [17] was inactive. For the same molecule, the result in the test on A549 [18], in the test with Malme-3M [19], in the test with SNB-19 [20], in the test with IGROV-1 [21], in the test on MOLT-4 [22] and in the test on COLO 205 [23] was inactive.
